Measurements taken from patent US10544144B2, “Fused pyrimidine piperidine cyclic derivative, preparation process and use thereof” (SHANGHAI ALLIST PHARMACEUTICAL AND MEDICAL TECHNOLOGY …, priority 2016, dated 2020).
Like-named read-outs stand apart in the source and are kept apart here.

Key:
[1] = system: Human Acute Myelogenous Leukemia Cell KG-1α (FGFR1 Insertion Mutation); experiment: MTT proliferation inhibition, KG-1α cells; format: cell-based; details: 72 hours drug exposure
Protocol: (§1) The pharmacodynamic action of the compound of the present invention in terms of inhibiting the proliferation of cancer cells may be determined by conventional methods. One preferable evaluation method is MTT (Thiazolyl Blue) cell activity assay, in which the change in optical absorption value generated after the drug has acted on the cancer cells is measured, and the inhibition ratio of a drug against the proliferation of cancer cells is calculated. Inhibition ratio (%)=[(blank control OD−inhibitor OD)/blank control OD]×100%
(§2) Blank control OD: the OD value of the well of normally grew cells without the action of a drug.
(§3) Inhibitor OD: the OD value of the well of cells with the action of the added compounds to be screened.
(§4) The median inhibitory concentration (IC50) value is obtained by the software GraphPad Prism 5.0 by the 4-parameter logistic curve fit calculation. Each experiment is repeated three times, and the average IC50 value for three experiments is used as the final index for the inhibitory ability.
(§5) Proliferation Inhibition Effect on Human Acute Myelogenous Leukemia Cell KG-1α (FGFR1 Insertion Mutation), Human Gastric Cancer Cell KATO-3 (FGFR2 Amplification), Human Multiple Myeloma Cell KMS-11 (FGFR3 Y373C Mutation)
(§6) Cells in the logarithmic phase were inoculated to 96-well culture plates (cell density: 3000/well for KATO-3, 9000/well for KG-1α, 3000/well for KMS-11, cell suspension: 180 μl/well), and cultured at 37° C. under 5% CO2 for 24 hours. After the culturing, the cells adhered to the well walls. Each of compounds was dissolved in DMSO in advance to formulate a 10 mM stock solution. Upon testing, the stock solution was diluted with complete medium to 10 times the target concentration in another 96-cell plate. And then the compound was added at 20 μl/cell in the 96-well plate in which the cells were inoculated, i.e. the target concentration could be reached. The well for each concentration was triplicated, and the blank control was established. Cells continued to be cultured at 37° C. under 5% CO2 for 72 hours. After the drug acted for 72 hours, 20 μl of Thiazolyl Blue, i.e., MTT was added to each of wells. MTT was dissolved in a phosphate buffer solution free of Ca and Mg ions (D-PBSA) to formulate a 0.5% stock solution in advance. The stock solution was filtered and sterilized. Cells continued to be cultured at 37° C. under 5% CO2 for 4 hours. After 4 hours from the addition of MTT, 100 μl of 14% dimethylformamide-sodium dodecyl sulfate (DMF-SDS) was added to and dissolved in each of wells. Cells were cultured at 37° C. for 3-4 hours, and detected for the light density value (OD) at a wavelength of 570 nm. The inhibition rate was calculated based on the collected data.

[2] = system: Human Gastric Cancer Cell KATO-3 (FGFR2 Amplification); experiment: MTT proliferation inhibition, KATO-3 cells; format: cell-based
Source text: The pharmacodynamic action of the compound of the present invention in terms of inhibiting the proliferation of cancer cells may be determined by conventional methods. […] Inhibition ratio (%)=[(blank control OD−inhibitor OD)/blank control OD]×100%
as §2, §3, §4, §5, §6

[3] = system: Human Multiple Myeloma Cell KMS-11 (FGFR3 Y373C Mutation); experiment: MTT proliferation inhibition, KMS-11 cells; format: cell-based; details: 72 hours drug exposure
Protocol: as §1, §2, §3
The median inhibitory concentration (IC50) value is obtained by the software GraphPad Prism 5.0 by the 4-parameter logistic curve fit calculation. […]
Cells in the logarithmic phase were inoculated to 96-well culture plates (cell density: 3000/well for KATO-3, 9000/well for KG-1α, 3000/well for KMS-11, cell suspension: 180 μl/well), and cultured at 37° C. under 5% CO2 for 24 hours. […] Cells were cultured at 37° C. for 3-4 hours, and detected for the light density value (OD) at a wavelength of 570 nm. The inhibition rate was calculated based on the collected data.

[4] = system: subcutaneously transplanted tumors of human bladder cancer RT112/84; experiment: Growth of subcutaneously transplanted tumors in RT112/84-bearing nude mice; format: in vivo, BALB/c nude mice; details: p.o., 14 days, I-5 15 or 25 mg/kg QD, I-13 50 mg/kg BID, BGJ398 15 mg/kg QD, FIG. 1
Source text: The pharmacodynamic action of the compound of the present invention in terms of inhibiting the growth of transplantation tumor in animal may be assayed by conventional methods. One preferable evaluation method involves the inhibitory effect on the growth of subcutaneously transplantation tumor of human bladder cancer RT112/84-bearing nude mice. The experimental method is as follows: 5×10^6 human bladder cancer RT112/84 cells are inoculated to nude mice subcutaneously at the right side of the back thereof, and each mouse is inoculated with 0.1 ml. After the tumors grow to 100-150 mm^3 on average, the animals are divided into groups randomly according to the tumor size and the animal weight. […] During the entire experimental process, the animal weight and the tumor size are measured twice per week, so as to observe whether or not the toxic reaction occurs.
The tumor volume is calculated as follows: Tumor volume (mm^3)=0.5×(Tumor major diameter×Tumor minor diameter^2) Body weight change rate (%)=measured body weight/body weight before administration×100%. […]
Cell cultivation: RT112/84 cells were placed in a MEM medium containing 10% fetal bovine serum (FBS) and 1% non-essential amino acid (NEAA), and cultivated in a temperature-constant incubator containing 5% CO2 at 37° C. The cells in exponential growth phase were collected and counted for inoculation. […]

[5] = KATO3, MTT, 72 hours drug exposure, KATO-3 cells, read-out: KATo-3 (FGFR2 amplification) IC50
[6] = KATO3, 72 h, read-out: KATo-3 (FGFR2 amplification) IC50 (nM)

IC50 ([1]; Homo sapiens) | IC50 [2, 5] | Compound | IC50 [2, 6] | other results
5 nM | 4 nM | CCN1CCN(c2ccc(Nc3ncc4c(n3)CCN(c3c(Cl)c(OC)cc(OC)c3Cl)C4)cn2)CC1 [Compound I-8, 6-(2,6-dichloro-3,5-dimethoxyphenyl)-N-(6-(4-ethylpiperazin-1-yl)pyridin-3-yl)-5,6,7,8-tetrahydropyrido[4,3-d]pyrimidin-2-amine] | – | –
8 nM | 4 nM | CCN1CCN(c2ccc(Nc3ncc4c(n3)CCN(c3cc(C(=O)NC)cc(OC)c3Cl)C4)cn2)CC1 [Compound I-11, 4-chloro-3-(2-(6-(4-ethylpiperazin-1-yl)pyridin-3-ylamino)-7,8dihydropyrido[4,3-d]pyrimidin-6(5H)-yl)-5-methoxy-N-methylbenzamide] | – | –
15 nM | 23 nM | COc1cc(OC)c(Cl)c(N2CCc3nc(Nc4ccc(N5CCN(CCO)CC5)nc4)ncc3C2)c1Cl [Compound I-14, 2-(4-(5-(6-(2,6-dichloro-3,5-dimethoxyphenyl)-5,6,7,8-tetrahydropyrido[4,3-d]pyrimidin-2-ylamino)pyridin-2-yl)piperazin-1-yl)ethanol] | – | –
24 nM | 7 nM | CCN1CCN(c2ccc(Nc3ncc4c(n3)CCN(c3c(Cl)c(OC)cc(OC)c3Cl)C4)cc2OC)CC1 [Compound I-10, 6-(2,6-dichloro-3,5-dimethoxyphenyl)-N-(4-(4-ethylpiperazin-1-yl)-3-methoxyphenyl)-5,6,7,8-tetrahydropyrido[4,3-d]pyrimidin-2-amine] | – | –
6 nM | 3 nM | CNC(=O)c1cc(OC)c(Cl)c(N2CCc3nc(Nc4ccc(N5CCC(N(C)C)CC5)cc4)ncc3C2)c1 [Compound I-13] | – | –
2 nM | 3 nM | COc1cc(OC)c(Cl)c(N2CCc3nc(Nc4ccc(N5CCC(N(C)C)CC5)cc4)ncc3C2)c1F [Compound I-15, 6-(2-fluoro-6-chloro-3,5-dimethoxyphenyl)-N-(4-(4-(dimethylamino)piperidin-1-yl)phenyl)-5,6,7,8-tetrahydropyrido[4,3-d]pyrimidin-2-amine] | – | –
12 nM | 21 nM | COc1cc(OC)c(Cl)c(N2CCc3nc(Nc4ccc(N5CCC(N(C)C)CC5)nc4)ncc3C2)c1Cl [Compound I-9, 6-(2,6-dichloro-3,5-dimethoxyphenyl)-N-(6-(4-(dimethylamino)piperidin-1-yl)pyridin-3-yl)-5,6,7,8-tetrahydropyrido[4,3-d]pyrimidin-2-amine] | – | IC50 ([3]; Homo sapiens): 200 nM

Continued, compound first:

Compound | IC50 ([1]; Homo sapiens) | IC50 [2, 5] | IC50 [2, 6] | other results
AZD4547 [reference compound] | – | – | – | IC50 [1]: 7 nM; IC50 [3]: 200 nM
COc1cc(OC)c(Cl)c(N2CCc3nc(Nc4ccc(N5CCN(CCO)CC5)cc4)ncc3C2)c1Cl [Compound I-3, 2-(4-(4-(6-(2,6-dichloro-3,5-dimethoxyphenyl)-5,6,7,8-tetrahydropyrido[4,3-d]pyrimidin-2-ylamino)phenyl)piperazin-1-yl)ethanol] | 1 nM | – | 8 nM | –
COc1cc(OC)c(Cl)c(N2CCc3nc(Nc4ccc(N5CCC(N(C)C)CC5)cc4)ncc3C2)c1Cl [Compound I-5, 6-(2,6-dichloro-3,5-dimethoxyphenyl)-N-(4-(4-(dimethylamino)piperidin-1-yl)phenyl)-5,6,7,8-tetrahydropyrido[4,3-d]pyrimidin-2-amine] | 2 nM | – | 4 nM | inhibition effect on the growth of subcutaneously transplanted tumors (tumor volume) [4]: better inhibition effect than BGJ398
CCN1CCN(c2ccc(Nc3ncc4c(n3)CCN(c3c(Cl)c(OC)cc(OC)c3Cl)C4)cc2)C(=O)C1 [Compound I-7] | 18 nM | 6 nM | – | –
COc1cc(OC)c(Cl)c(N2CCc3nc(Nc4ccc(N5CCN(CCN(C)C)CC5)cc4)ncc3C2)c1Cl [Compound I-4, 6-(2,6-dichloro-3,5-dimethoxyphenyl)-N-(4-(4-(2-(dimethylamino)ethyl)piperazin-1-yl)phenyl)-5,6,7,8-tetrahydropyrido[4,3-d]pyrimidin-2-amine] | 2 nM | – | 30 nM | –
COc1cc(OC)c(Cl)c(N2CCc3nc(Nc4ccc(N5CCN(CC(F)(F)F)CC5)cc4)ncc3C2)c1Cl [Compound I-2, 6-(2,6-dichloro-3,5-dimethoxyphenyl)-N-(4-(4-(2,2,2-trifluoroethyl)piperazin-1-yl)phenyl)-5,6,7,8-tetrahydropyrido[4,3-d]pyrimidin-2-amine] | 7 nM | – | 45 nM | –
CCN1CCN(c2ccc(Nc3ncc4c(n3)CCN(c3c(Cl)c(OC)cc(OC)c3Cl)C4)cc2)CC1 [Compound I-1, 6-(2,6-dichloro-3,5-dimethoxyphenyl)-N-(4-(4-ethylpiperazin-1-yl)phenyl)-5,6,7,8-tetrahydropyrido[4,3-d]pyrimidin-2-amine] | 5 nM | 12 nM | – | –
COc1cc(OC)c(Cl)c(N2CCc3nc(Nc4ccc(N5CCN(C6CC6)CC5)cc4)ncc3C2)c1Cl [Compound I-6, 6-(2,6-dichloro-3,5-dimethoxyphenyl)-N-(4-(4-cyclopropylpiperazin-1-yl)phenyl)-5,6,7,8-tetrahydropyrido[4,3-d]pyrimidin-2-amine] | 3 nM | – | 11 nM | –
